# Assay results: patent US12091411B2, “IRAK degraders and uses thereof” (Kymera Therapeutics, Inc., priority 2022, dated 2024)
# Read-outs that look alike come from different tables or passages of the source.
# Biological target: T1, IRAK4 (Homo sapiens, UniProt Q9NWZ3)
# T1 construct: Degradation of IRAK4 in OCI-LY10 was quantitatively measured using Meso Scale Discovery technology; endogenous in cells; host or cells: OCI-LY10
# T1 sequence (Q9NWZ3 1-460): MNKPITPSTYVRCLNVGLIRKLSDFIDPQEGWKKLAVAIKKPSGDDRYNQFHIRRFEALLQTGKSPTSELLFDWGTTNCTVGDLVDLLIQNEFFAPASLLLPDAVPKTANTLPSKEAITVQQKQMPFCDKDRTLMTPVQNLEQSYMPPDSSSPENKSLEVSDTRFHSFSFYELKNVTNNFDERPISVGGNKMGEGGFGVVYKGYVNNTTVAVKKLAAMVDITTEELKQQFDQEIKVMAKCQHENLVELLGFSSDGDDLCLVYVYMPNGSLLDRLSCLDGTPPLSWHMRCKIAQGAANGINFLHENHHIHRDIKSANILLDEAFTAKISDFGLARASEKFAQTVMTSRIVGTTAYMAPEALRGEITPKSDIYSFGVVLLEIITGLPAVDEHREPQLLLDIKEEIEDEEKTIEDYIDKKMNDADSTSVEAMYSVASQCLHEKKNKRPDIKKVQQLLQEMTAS
# Assay: IRAK4 MSD Degradation in OCI-LY10
# Format: cell-based
# Settings: OCI-LY10 cells, MSD
# Procedure, shortened: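 OCI-LY10 cells exposed to 8-point 1:3 compound series (top 1 to 10 μM) for 4 to 24 h at 37 °C, 5% CO2. Lysate IRAK4 quantified by MSD sandwich immunoassay. DC50 from three-parameter logistic fit, binned A (<0.01 μM) to D (>0.2 μM or not tested).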
# [1] = 4 hrs incubation, read-out: IRAK4 degradation in OCI-LY10 at 4 hrs: DC50
# [2] = 24 hrs incubation, read-out: IRAK4 degradation in OCI-LY10 at 24 hrs: DC50
DC50 [1],DC50 [2],SMILES
> 200 nM,< 10 nM,Cn1c(=O)n(C2CCC(=O)NC2=O)c2cccc(OC3CCN([C@H]4CC[C@H](n5cc(NC(=O)c6cnn7ccc(N8C[C@H]9C[C@@H]8CO9)nc67)c(C(F)F)n5)CC4)CC3)c21 (stereo partly drawn) [I-739]
10 to 100 nM,> 200 nM,CN(C[C@H]1CC[C@H](n2cc(NC(=O)c3cnn4ccc(N5CC(C)(C)OC(C)(C)C5)nc34)c(C(F)F)n2)CC1)C1CCN(c2cccc3c2n(C)c(=O)n3C2CCC(=O)NC2=O)CC1 (stereo partly drawn) [I-355]
> 200 nM,> 200 nM,O=C1CCC(c2ccc(N3CC(CN4CCN(C[C@H]5CC[C@H](n6cc(NC(=O)c7cnn8ccc(N9C[C@H]%10C[C@@H]9CO%10)nc78)c(C(F)F)n6)CC5)CC4)C3)cc2Cl)C(=O)N1 (stereo partly drawn) [I-778]
> 200 nM,> 200 nM,Cn1c(=O)n(C2CCC(=O)NC2=O)c2cccc(C#CCN3CCN(C[C@H]4CC[C@H](n5cc(NC(=O)c6cnn7ccc(OC8CCC8)nc67)c(C(F)F)n5)CC4)CC3)c21 (stereo partly drawn) [I-244]
> 200 nM,< 10 nM,Cn1c(=O)n(C2CCC(=O)NC2=O)c2cccc(OC3CCN([C@H]4CC[C@H](n5cc6cc(NC(=O)c7cccc(C(F)(F)F)n7)ccc6n5)CC4)CC3)c21 (stereo partly drawn) [I-741]
> 200 nM,–,Cn1c(=O)n(C2CCC(=O)NC2=O)c2cccc(N3CCN(CC4COC5(C4)CN(C[C@H]4CC[C@H](n6cc7cc(NC(=O)c8cccc(C(F)(F)F)n8)ccc7n6)CC4)C5)CC3)c21 (stereo partly drawn) [I-665]
< 10 nM,> 200 nM,Cn1c(=O)n(C2CCC(=O)NC2=O)c2cccc(N3CCC4(CCN(C[C@H]5CC[C@@H](n6cc(NC(=O)c7cnn8ccc(N9CC%10C[C@@H]9CO%10)nc78)c(C(F)F)n6)CC5)CC4)CC3)c21 (stereo partly drawn) [I-188]
> 200 nM,> 200 nM,Cc1cccc(C(=O)Nc2ccc3nn([C@H]4CC[C@H](CN5CC[C@H](c6cccc7c6n(C)c(=O)n7C6CCC(=O)NC6=O)[C@@H](F)C5)CC4)cc3c2)n1 (stereo partly drawn) [I-622]
> 200 nM,< 10 nM,Cn1c(=O)n(C2CCC(=O)NC2=O)c2cccc(C#CCN3CCN(C[C@H]4CC[C@H](n5cc(NC(=O)c6cnn7ccc(N8CCC(F)(F)CC8)nc67)c(C(F)F)n5)CC4)CC3)c21 (stereo partly drawn) [I-434]
> 200 nM,> 200 nM,O=C1CCC(c2ccc(C#CCN3CCN(C[C@H]4CC[C@@H](n5cc(NC(=O)c6cnn7ccc(N8C[C@@H]9C[C@H]8CO9)nc67)c(C(F)F)n5)CC4)CC3)cc2)C(=O)N1 (stereo partly drawn) [I-126]
> 200 nM,> 200 nM,Cn1c(=O)n(C2CCC(=O)NC2=O)c2cccc(N3CCC(F)(CN4CC5(CCC(n6cc7cc(NC(=O)c8cccc(C(F)(F)F)n8)c(C#N)cc7n6)CC5)C4)CC3)c21 (stereo not drawn) [I-567]
> 200 nM,10 to 100 nM,COc1cc2nn([C@H]3CC[C@H](CN4CC=C(c5ccc6c(c5)n(C)c(=O)n6C5CCC(=O)NC5=O)C(F)(F)C4)CC3)cc2cc1NC(=O)c1cccc(C(F)(F)F)n1 (stereo partly drawn) [I-704]
> 200 nM,> 200 nM,COc1ccc2c(c1C1CCN(C[C@H]3CC[C@H](n4cc5cc(NC(=O)c6cccc(C(F)(F)F)n6)ccc5n4)CC3)CC1(F)F)n(C)c(=O)n2C1CCC(=O)NC1=O (stereo partly drawn) [I-446]
> 200 nM,> 200 nM,Cn1c(=O)n(C2CCC(=O)NC2=O)c2cccc(CC[C@H]3CN(Cc4ccc(-n5cc(NC(=O)c6cnn7ccc(N8C[C@H]9C[C@@H]8CO9)nc67)c(C(F)F)n5)cc4)CCO3)c21 (stereo partly drawn) [I-386]
> 200 nM,< 10 nM,Cn1c(=O)n(C2CCC(=O)NC2=O)c2ccnc(N3CCN([C@@H]4CCN(C[C@H]5CC[C@H](n6cc(NC(=O)c7cnn8ccc(N9C[C@H]%10C[C@@H]9CO%10)nc78)c(C(F)F)n6)CC5)CC4(F)F)CC3)c21 (stereo partly drawn) [I-743]
> 200 nM,> 200 nM,Cn1c(=O)n(C2CCC(=O)NC2=O)c2cccc(C3CCN(C[C@H]4CC[C@H](n5cc6cc(NC(=O)c7cccc(C(F)(F)F)n7)c(C#N)cc6n5)CC4)CC3(F)F)c21 (stereo partly drawn) [I-490]
> 200 nM,> 200 nM,COc1cc2nn([C@H]3CC[C@H](CN4CCC(c5cccc6c5n(C)c(=O)n6C5CCC(=O)NC5=O)C(F)(F)C4)CC3)cc2cc1NC(=O)c1cccc(C(F)(F)F)n1 (stereo partly drawn) [I-451]
100 to 200 nM,> 200 nM,Cn1c(=O)n(C2CCC(=O)NC2=O)c2cccc(C#CCOC3CC4CC3CN4C[C@H]3CC[C@H](n4cc(NC(=O)c5cnn6ccc(N7C[C@H]8C[C@@H]7CO8)nc56)c(C(F)F)n4)CC3)c21 (stereo partly drawn) [I-19]
> 200 nM,> 200 nM,Cc1cccc(C(=O)Nc2cc3cn([C@H]4CC[C@H](CN5CC[C@@H](c6cccc7c6n(C)c(=O)n7C6CCC(=O)NC6=O)[C@H](F)C5)CC4)nc3c(=O)n2C)n1 (stereo partly drawn) [I-768]

DC50 [1],DC50 [2],SMILES
> 200 nM,< 10 nM,Cn1c(=O)n(C2CCC(=O)NC2=O)c2cccc(C#CCN3CCN(C[C@H]4CC[C@H](n5cc(NC(=O)c6cnn7ccc(N8C[C@H]9CC[C@@H](C8)O9)nc67)c(C(F)F)n5)CC4)CC3)c21 (stereo partly drawn) [I-290]
10 to 100 nM,10 to 100 nM,CCc1ccn2ncc(C(=O)Nc3cn([C@H]4CC[C@H](CN5CCN(CC#Cc6cccc7c6n(C)c(=O)n7C6CCC(=O)NC6=O)CC5)CC4)nc3C(F)F)c2n1 (stereo partly drawn) [I-110]
> 200 nM,< 10 nM,Cn1c(=O)n(C2CCC(=O)NC2=O)c2cccc(C3CCN(C[C@]4(O)CC[C@@H](n5cc6cc(NC(=O)c7cccc(C(F)(F)F)n7)ccc6n5)CC4)CC3)c21 (stereo partly drawn) [I-711]
> 200 nM,> 200 nM,CN(C[C@H]1CC[C@H](n2cc(NC(=O)c3cnn4ccc(N5CCO[C@@H](C(F)(F)F)C5)nc34)c(C(F)F)n2)CC1)C1CCN(c2cccc3c2n(C)c(=O)n3C2CCC(=O)NC2=O)CC1(F)F (stereo partly drawn) [I-537]
> 200 nM,< 10 nM,Cc1cccc(C(=O)Nc2cc3cn([C@H]4CC[C@H](CN5CC[C@@H](c6cccc7c6n(C)c(=O)n7C6CCC(=O)NC6=O)[C@H](F)C5)CC4)nc3cn2)n1 (stereo partly drawn) [I-633]
> 200 nM,> 200 nM,CN(C[C@H]1CC[C@H](n2cc(NC(=O)c3cnn4ccc(N5CCS(=O)(=O)CC5)nc34)c(C(F)F)n2)CC1)C1CCN(c2cccc3c2n(C)c(=O)n3C2CCC(=O)NC2=O)CC1(F)F (stereo partly drawn) [I-542]
> 200 nM,> 200 nM,CN(C[C@H]1CC[C@H](n2cc(NC(=O)c3cnn4ccc(N5CCO[C@@H](C(F)F)C5)nc34)c(C(F)F)n2)CC1)C1CCN(c2cccc3c2n(C)c(=O)n3C2CCC(=O)NC2=O)CC1(F)F (stereo partly drawn) [I-535]
> 200 nM,< 10 nM,Cn1c(=O)n(C2CCC(=O)NC2=O)c2cccc(C#CCN3CCN(C[C@H]4CC[C@H](n5cc(NC(=O)c6cnn7ccc(N8CCC9(CCOC9)C8)nc67)c(C(F)F)n5)CC4)CC3)c21 (stereo partly drawn) [I-321]
> 200 nM,> 200 nM,Cn1c(=O)n(C2CCC(=O)NC2=O)c2cccc([C@@H]3CCN(C[C@H]4CC[C@H](n5cc6cc(NC(=O)c7cccc(C#N)n7)c(C(C)(C)O)cc6n5)CC4)C[C@@H]3F)c21 (stereo partly drawn) [I-648]
> 200 nM,> 200 nM,COc1ccc2c(c1C1CCN(C[C@H]3CC[C@H](n4cc5cc(NC(=O)c6cccc(C(F)(F)F)n6)ccc5n4)CC3)CC1F)n(C)c(=O)n2C1CCC(=O)NC1=O (stereo partly drawn) [I-551]
> 200 nM,10 to 100 nM,Cn1c(=O)n(C2CCC(=O)NC2=O)c2cccc(C#CCN3CCN(C[C@H]4CC[C@H](n5cc(NC(=O)c6cnn7ccc(N8CCC(C)(C)CC8)nc67)c(C(F)F)n5)CC4)CC3)c21 (stereo partly drawn) [I-227]
> 200 nM,10 to 100 nM,CN(C[C@H]1CC[C@H](n2cc(NC(=O)c3cnn4ccc(N5CC6(COC6)C5)nc34)c(C(F)F)n2)CC1)C1CCN(c2cccc3c2n(C)c(=O)n3C2CCC(=O)NC2=O)CC1(F)F (stereo partly drawn) [I-509]
> 200 nM,> 200 nM,CN(C[C@H]1CC[C@H](n2cc(NC(=O)c3cnn4cccnc34)c(C(F)F)n2)CC1)C1CCN(c2cccc3c2n(C)c(=O)n3C2CCC(=O)NC2=O)CC1F (stereo partly drawn) [I-482]
> 200 nM,< 10 nM,CN(C[C@H]1CC[C@H](n2cc(NC(=O)c3cnn4ccc(N5CCOC6(CCC6)C5)nc34)c(C(F)F)n2)CC1)C1CCN(c2cccc3c2n(C)c(=O)n3C2CCC(=O)NC2=O)CC1 (stereo partly drawn) [I-357]
> 200 nM,< 10 nM,Cn1c(=O)n(C2CCC(=O)NC2=O)c2cccc(N3CC(N4CCN([C@H]5CC[C@H](n6cc(NC(=O)c7cnn8ccc(N9C[C@H]%10C[C@@H]9CO%10)nc78)c(C(F)F)n6)CC5)CC4)C3)c21 (stereo partly drawn) [I-730]
> 200 nM,> 200 nM,CN(C[C@H]1CC[C@H](n2cc(NC(=O)c3cnn4ccc(N5CC6(CC6)C5)nc34)c(C(F)F)n2)CC1)C1CCN(c2cccc3c2n(C)c(=O)n3C2CCC(=O)NC2=O)CC1(F)F (stereo partly drawn) [I-506]
> 200 nM,> 200 nM,Cn1c(=O)n(C2CCC(=O)NC2=O)c2cccc([C@H]3CCN(C[C@H]4CC[C@H](n5cc6cc(NC(=O)c7cccc(C(F)F)n7)ccc6n5)CC4)C[C@H]3F)c21 (stereo partly drawn) [I-631]
< 10 nM,> 200 nM,Cn1c(=O)n(C2CCC(=O)NC2=O)c2cccc([C@H]3C[C@@H](CN4CCN(C[C@H]5CC[C@H](n6cc(NC(=O)c7cnn8ccc(N9C[C@H]%10CC9CO%10)nc78)c(C(F)F)n6)CC5)CC4)C3)c21 (stereo partly drawn) [I-78]
> 200 nM,> 200 nM,Cn1c(=O)n(C2CCC(=O)NC2=O)c2cccc(C#CCOC3CCN(C[C@H]4CC[C@H](n5cc(NC(=O)c6cnn7ccc(N8CCOC(F)(F)C8)nc67)c(C(F)F)n5)CC4)CC3)c21 (stereo partly drawn) [I-334]
